The source of these data is ChEMBL document CHEMBL3779897, “Novel quinoline-derived mTOR inhibitors with remarkable enzymatic and cellular activities: design, synthesis and biological evaluation” (Medchemcomm, 2016).

The source made the active and inactive calls. The rule behind the calls is not given here.

Data set [1] can be described thus: cells. Conditions: Homo sapiens, PC-3, 72 h.
Data set [2] in a line: cells. Conditions: Homo sapiens, HCT-116, 72 h.
Data set [3] deals with T1, Serine/threonine-protein kinase mTOR (Homo sapiens, UniProt P42345). The data set can be described thus: Inhibition of human mTOR using ULight-4E-BP1 peptide as substrate after 1 hr by Lance ultra assay.
The test system of data set [4] is MCF7. The data set can be described thus: cells. Conditions: Homo sapiens, MCF7, 72 h.
Another data set relates to Liver microsome. Kind of data set: Stability in rat liver microsomes after 30 mins. Format: ADME. The following applies: 0.5 h.
In data set [5] the target is T2, Phosphatidylinositol 4,5-bisphosphate 3-kinase catalytic subunit alpha isoform (Homo sapiens, UniProt P42336). Kind of data set: Inhibition of human recombinant PI3Kalpha using PIP2 as substrate at 1 uM after 1 hr by Kinase-Glo luminescent assay.
Data set [6] can be described thus: Stability in simulated intestinal fluid after 45 mins. It counts as ADME. Conditions: simulated gi fluid, 0.75 h.
Data set [7] concerns the target T3, Phosphatidylinositol 4,5-bisphosphate 3-kinase catalytic subunit gamma isoform (Homo sapiens, UniProt P48736). Kind of data set: Inhibition of human PI3Kgamma at 1 uM after 1 hr by ADP-Glo luminescent assay.
Target sequence in this assay (P48736 whole entry, looked up, canonical isoform): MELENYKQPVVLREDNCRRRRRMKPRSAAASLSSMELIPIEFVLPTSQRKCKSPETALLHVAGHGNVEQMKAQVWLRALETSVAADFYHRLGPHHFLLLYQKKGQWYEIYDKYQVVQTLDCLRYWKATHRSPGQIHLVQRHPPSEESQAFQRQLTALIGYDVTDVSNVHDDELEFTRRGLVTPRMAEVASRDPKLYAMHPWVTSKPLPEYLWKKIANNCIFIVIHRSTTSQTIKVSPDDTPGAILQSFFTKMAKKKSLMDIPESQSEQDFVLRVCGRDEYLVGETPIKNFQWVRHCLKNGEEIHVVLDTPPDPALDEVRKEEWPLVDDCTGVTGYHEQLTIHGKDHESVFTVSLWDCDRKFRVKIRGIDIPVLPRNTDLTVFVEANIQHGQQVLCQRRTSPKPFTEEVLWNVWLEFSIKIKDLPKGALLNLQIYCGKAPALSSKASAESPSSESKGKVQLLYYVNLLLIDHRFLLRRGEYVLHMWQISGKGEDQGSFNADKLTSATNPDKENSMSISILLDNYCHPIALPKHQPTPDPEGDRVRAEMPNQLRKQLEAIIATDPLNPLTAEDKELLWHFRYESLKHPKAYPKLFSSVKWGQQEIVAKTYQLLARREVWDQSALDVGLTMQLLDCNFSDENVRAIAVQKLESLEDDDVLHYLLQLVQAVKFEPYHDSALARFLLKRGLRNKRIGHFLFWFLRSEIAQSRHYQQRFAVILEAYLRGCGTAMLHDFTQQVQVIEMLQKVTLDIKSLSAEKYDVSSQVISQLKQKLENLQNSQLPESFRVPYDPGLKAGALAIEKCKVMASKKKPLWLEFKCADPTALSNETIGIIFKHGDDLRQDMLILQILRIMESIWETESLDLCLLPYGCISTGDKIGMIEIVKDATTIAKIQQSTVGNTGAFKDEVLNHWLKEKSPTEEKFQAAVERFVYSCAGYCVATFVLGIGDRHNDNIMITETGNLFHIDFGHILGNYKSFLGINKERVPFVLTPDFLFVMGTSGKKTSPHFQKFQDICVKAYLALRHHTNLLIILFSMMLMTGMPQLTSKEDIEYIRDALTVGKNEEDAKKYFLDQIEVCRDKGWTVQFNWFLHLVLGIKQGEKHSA
Data set [8] is described as follows: Stability in simulated gastric fluid after 45 mins. It counts as ADME. Conditions: simulated gi fluid, 0.75 h.
Data set [9] addresses T4, Phosphatidylinositol 4,5-bisphosphate 3-kinase catalytic subunit beta isoform (Homo sapiens, UniProt P42338). The data set can be described thus: Inhibition of PI3Kbeta (unknown origin) at 1 uM after 1 hr by ADP-Glo luminescent assay.
Target sequence in this assay (P42338 whole entry, looked up, canonical isoform): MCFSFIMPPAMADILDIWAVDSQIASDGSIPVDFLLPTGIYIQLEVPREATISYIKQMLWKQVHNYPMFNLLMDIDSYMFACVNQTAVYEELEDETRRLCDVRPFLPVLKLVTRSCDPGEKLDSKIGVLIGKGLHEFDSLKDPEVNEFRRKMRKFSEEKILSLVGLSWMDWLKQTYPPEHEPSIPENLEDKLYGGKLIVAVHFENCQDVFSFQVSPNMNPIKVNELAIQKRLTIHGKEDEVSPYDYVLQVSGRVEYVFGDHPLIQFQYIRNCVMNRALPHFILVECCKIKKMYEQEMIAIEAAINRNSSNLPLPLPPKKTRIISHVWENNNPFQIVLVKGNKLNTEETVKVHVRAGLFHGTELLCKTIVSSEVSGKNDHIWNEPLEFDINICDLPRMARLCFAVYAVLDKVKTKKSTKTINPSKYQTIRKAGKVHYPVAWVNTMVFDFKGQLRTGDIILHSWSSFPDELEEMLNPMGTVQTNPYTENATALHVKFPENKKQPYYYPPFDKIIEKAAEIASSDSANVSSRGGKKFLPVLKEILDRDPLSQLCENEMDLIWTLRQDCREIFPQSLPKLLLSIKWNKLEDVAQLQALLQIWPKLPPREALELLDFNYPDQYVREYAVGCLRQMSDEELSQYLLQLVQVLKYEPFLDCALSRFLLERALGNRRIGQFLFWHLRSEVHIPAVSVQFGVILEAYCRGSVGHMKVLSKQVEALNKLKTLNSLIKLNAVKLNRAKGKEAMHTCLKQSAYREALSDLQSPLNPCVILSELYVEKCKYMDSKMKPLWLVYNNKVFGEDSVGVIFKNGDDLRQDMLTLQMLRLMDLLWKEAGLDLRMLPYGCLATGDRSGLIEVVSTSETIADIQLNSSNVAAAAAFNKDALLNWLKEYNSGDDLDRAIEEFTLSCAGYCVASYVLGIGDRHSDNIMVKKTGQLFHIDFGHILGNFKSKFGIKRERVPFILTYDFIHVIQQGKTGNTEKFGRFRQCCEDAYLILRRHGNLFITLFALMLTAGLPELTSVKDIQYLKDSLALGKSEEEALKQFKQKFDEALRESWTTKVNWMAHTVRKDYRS
The target of data set [10] is T5, Phosphatidylinositol 4,5-bisphosphate 3-kinase catalytic subunit delta isoform (Homo sapiens) (UniProt O00329).
T5 sequence (whole entry): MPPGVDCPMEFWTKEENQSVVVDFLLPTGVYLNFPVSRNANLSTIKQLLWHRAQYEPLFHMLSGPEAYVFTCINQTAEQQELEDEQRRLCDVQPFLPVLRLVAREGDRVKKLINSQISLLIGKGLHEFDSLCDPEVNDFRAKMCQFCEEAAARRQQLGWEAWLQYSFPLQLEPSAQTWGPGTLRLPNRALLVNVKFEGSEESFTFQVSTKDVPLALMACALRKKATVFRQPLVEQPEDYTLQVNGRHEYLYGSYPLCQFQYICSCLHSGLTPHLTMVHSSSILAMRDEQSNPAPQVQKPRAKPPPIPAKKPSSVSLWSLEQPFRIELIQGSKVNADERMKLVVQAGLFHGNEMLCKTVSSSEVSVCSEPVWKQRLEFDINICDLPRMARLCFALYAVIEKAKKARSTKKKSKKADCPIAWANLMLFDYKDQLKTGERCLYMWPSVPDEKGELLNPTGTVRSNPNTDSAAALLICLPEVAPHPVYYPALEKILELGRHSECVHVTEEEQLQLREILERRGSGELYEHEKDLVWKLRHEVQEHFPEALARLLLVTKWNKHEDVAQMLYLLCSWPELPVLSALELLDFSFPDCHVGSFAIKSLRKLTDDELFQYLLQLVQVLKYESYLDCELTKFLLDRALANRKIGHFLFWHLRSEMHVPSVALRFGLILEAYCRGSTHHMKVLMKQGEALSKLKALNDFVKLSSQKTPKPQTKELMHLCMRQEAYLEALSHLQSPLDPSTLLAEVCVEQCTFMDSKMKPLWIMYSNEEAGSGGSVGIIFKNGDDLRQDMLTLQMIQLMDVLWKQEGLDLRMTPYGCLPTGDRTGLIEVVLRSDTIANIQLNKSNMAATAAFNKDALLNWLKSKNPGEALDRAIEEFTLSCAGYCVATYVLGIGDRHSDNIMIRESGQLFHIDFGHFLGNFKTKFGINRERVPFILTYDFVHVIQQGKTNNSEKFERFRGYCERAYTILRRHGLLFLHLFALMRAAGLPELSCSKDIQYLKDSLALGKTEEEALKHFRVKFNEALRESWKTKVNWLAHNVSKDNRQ
The data set can be described thus: Inhibition of PI3Kdelta (unknown origin) at 1 uM after 1 hr by ADP-Glo luminescent assay.

In data set [11] the target is T6, mTORC1 (Homo sapiens) (UniProt P42345+Q8N122+Q9BVC4). Kind of data set: Inhibition of mTORC1 in human MCF7 cells assessed as downregulation of S6 Ser235 phosphorylation at 0.5 uM after 2 hrs by Western blot analysis. It counts as cell-based.
Data set [12] deals with T2, Phosphatidylinositol 4,5-bisphosphate 3-kinase catalytic subunit alpha isoform. The data set can be described thus: Inhibition of human recombinant PI3Kalpha using PIP2 as substrate after 1 hr by Kinase-Glo luminescent assay.
Data set [13] addresses T3, Phosphatidylinositol 4,5-bisphosphate 3-kinase catalytic subunit gamma isoform. Kind of data set: Inhibition of human PI3Kgamma after 1 hr by ADP-Glo luminescent assay.
Target sequence in this assay (P48736 whole entry, canonical isoform): as the sequence (P48736 whole entry, looked up, canonical isoform) above
Data set [14] concerns MCF7. The data set can be described thus: Inhibition of mTORC2 in human MCF7 cells assessed as downregulation of Akt Ser473 phosphorylation at 0.1 uM after 2 hrs by Western blot analysis. Format: cell-based.
Data set [15] deals with T4, Phosphatidylinositol 4,5-bisphosphate 3-kinase catalytic subunit beta isoform. Kind of data set: Inhibition of PI3Kbeta (unknown origin) after 1 hr by ADP-Glo luminescent assay.
Target sequence in this assay (P42338 whole entry, canonical isoform): as the sequence (P42338 whole entry, looked up, canonical isoform) above
Data set [16] deals with MCF7. The data set can be described thus: Inhibition of mTORC2 in human MCF7 cells assessed as downregulation of Akt Ser473 phosphorylation at 0.5 uM after 2 hrs by Western blot analysis. Format: cell-based.
The target in data set [17] is T7, Phosphatidylinositol 4,5-bisphosphate 3-kinase catalytic subunit delta isoform (Homo sapiens, UniProt O00329).
T7 sequence (O00329 whole entry): T5 sequence (whole entry)
Kind of data set: Inhibition of PI3Kdelta (unknown origin) after 1 hr by ADP-Glo luminescent assay.

Data set [18] addresses T6, mTORC1 (Homo sapiens). The data set can be described thus: Inhibition of mTORC1 in human MCF7 cells assessed as downregulation of S6 Ser235 phosphorylation at 0.1 uM after 2 hrs by Western blot analysis. Format: cell-based.
The target of data set [19] is T1, Serine/threonine-protein kinase mTOR. Kind of data set: Inhibition of human mTOR at 3000 nM using ULight-4E-BP1 peptide as substrate after 1 hr by Lance ultra assay.

T2 sequence (P42336 whole entry, canonical isoform): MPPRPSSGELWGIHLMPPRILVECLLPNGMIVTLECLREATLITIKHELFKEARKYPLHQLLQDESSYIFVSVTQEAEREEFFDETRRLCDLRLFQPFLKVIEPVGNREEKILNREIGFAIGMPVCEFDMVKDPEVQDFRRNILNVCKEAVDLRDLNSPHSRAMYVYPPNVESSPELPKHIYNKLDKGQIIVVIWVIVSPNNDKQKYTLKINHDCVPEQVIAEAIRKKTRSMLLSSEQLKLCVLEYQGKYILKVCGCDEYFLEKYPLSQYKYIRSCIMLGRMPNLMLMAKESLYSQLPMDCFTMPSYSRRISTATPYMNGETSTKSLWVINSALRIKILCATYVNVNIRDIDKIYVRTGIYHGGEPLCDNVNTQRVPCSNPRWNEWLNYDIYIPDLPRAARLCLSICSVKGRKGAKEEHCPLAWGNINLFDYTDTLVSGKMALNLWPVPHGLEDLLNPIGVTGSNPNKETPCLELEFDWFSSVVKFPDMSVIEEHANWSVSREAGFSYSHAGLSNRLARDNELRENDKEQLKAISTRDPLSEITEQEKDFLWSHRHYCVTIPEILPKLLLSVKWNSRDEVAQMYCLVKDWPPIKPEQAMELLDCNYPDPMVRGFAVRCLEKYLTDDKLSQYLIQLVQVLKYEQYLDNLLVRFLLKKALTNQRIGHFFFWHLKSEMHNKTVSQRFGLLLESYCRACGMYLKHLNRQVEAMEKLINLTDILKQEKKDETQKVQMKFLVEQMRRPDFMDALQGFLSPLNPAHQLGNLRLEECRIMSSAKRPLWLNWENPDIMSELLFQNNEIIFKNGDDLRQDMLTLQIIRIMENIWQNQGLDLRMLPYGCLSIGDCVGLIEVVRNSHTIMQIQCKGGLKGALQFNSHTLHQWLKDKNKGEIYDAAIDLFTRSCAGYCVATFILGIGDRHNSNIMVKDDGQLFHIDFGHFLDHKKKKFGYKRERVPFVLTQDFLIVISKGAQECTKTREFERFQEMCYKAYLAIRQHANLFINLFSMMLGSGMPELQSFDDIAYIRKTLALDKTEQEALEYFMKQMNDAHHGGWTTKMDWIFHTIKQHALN
T6 sequence (Q8N122 whole entry, looked up, other chains not shown, canonical isoform): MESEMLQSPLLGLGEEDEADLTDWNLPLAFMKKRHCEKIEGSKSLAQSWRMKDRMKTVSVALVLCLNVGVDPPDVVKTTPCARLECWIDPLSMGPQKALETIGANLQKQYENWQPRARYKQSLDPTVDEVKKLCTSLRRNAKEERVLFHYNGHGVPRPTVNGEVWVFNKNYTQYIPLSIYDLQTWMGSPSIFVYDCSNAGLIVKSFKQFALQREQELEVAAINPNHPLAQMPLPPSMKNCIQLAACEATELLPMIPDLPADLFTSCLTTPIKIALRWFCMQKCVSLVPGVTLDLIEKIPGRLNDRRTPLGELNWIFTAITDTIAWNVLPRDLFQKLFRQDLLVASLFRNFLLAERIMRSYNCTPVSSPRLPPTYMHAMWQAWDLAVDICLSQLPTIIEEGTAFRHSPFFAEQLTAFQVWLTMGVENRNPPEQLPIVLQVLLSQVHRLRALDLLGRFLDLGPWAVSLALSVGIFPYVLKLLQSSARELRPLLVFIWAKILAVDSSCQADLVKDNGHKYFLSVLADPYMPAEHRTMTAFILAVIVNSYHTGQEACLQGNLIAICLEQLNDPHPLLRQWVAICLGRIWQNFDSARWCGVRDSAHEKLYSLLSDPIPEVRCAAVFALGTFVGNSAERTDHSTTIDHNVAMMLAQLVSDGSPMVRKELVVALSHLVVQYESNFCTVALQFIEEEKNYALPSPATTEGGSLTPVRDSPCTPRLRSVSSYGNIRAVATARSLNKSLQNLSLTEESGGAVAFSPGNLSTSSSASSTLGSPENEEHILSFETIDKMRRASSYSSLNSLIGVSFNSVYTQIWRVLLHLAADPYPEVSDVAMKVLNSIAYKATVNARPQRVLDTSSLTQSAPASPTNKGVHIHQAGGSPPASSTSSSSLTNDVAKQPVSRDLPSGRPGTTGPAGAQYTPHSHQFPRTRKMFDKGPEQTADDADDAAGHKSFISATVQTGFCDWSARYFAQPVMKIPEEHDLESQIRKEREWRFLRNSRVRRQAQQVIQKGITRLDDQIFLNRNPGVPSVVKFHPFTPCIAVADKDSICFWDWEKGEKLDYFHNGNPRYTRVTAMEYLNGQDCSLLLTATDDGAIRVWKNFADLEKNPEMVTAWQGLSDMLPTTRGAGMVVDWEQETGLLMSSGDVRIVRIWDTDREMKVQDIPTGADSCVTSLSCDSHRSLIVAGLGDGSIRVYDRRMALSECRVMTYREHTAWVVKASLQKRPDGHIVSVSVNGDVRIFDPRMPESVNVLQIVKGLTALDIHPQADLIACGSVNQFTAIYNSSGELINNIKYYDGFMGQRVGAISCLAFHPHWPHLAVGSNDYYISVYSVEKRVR
T6 sequence (Q9BVC4 whole entry, looked up, other chains not shown, canonical isoform): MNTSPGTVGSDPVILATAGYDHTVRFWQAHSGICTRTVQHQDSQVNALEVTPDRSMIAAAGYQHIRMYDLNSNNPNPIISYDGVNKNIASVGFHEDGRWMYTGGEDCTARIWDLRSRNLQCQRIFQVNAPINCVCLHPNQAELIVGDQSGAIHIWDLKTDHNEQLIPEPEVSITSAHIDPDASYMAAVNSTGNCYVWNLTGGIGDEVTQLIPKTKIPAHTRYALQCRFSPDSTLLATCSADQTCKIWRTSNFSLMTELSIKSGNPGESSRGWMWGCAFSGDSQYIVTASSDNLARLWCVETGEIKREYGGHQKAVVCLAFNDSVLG

As to `CC(C)(C#N)c1ccc(Nc2c(N(S(C)(=O)=O)S(C)(=O)=O)cnc3ccc(-c4cnc5ccccc5c4)cc23)cc1`, the IC50 in “cells [1]” and in “cells [2]” was over 10000 nM each time.

`COc1cc(Nc2c(NC(C)=O)cnc3ccc(-c4cnc5ccccc5c4)cc23)cc(OC)c1`: the figures for the IC50 (in “cells [1]”; in “cells [2]”; in data set [3]) were over 10000 nM, over 10000 nM and over 3000 nM, respectively.

On to `CC(=O)Nc1cnc2ccc(-c3cnc4ccccc4c3)cc2c1Nc1ccc(C(F)(F)F)cc1`, for which the half-inhibitory concentration (IC50) was over 10000 nM in “cells [1]”, over 10000 nM in “cells [2]” and over 3000 nM in data set [3].

With `CS(=O)(=O)Nc1cnc2ccc(-c3cnc4ccccc4c3)cc2c1Nc1ccc(N2CCNCC2)c(C(F)(F)F)c1`, the IC50 is 5420 nM in “cells [1]”, 1450 nM in the data set “cells [2]” and 1110 nM in the data set with MCF7 [4].

As for `CC(=O)Nc1cnc2ccc(-c3cnc4ccccc4c3)cc2c1Nc1ccc(C#N)cc1`, the IC50 in the data set “cells [1]” is over 10000 nM; in the data set “cells [2]”, over 10000 nM; in [3] it was over 3000 nM.

In the case of `CC(=O)N1CCN(c2ccc(Nc3c(NC(=O)C(C)(C)C)cnc4ccc(-c5cnc6ccccc6c5)cc34)cc2C(F)(F)F)CC1`, the values for the IC50 in “cells [1]”, in the data set “cells [2]” and in the data set on MCF7 [4] were over 10000 nM, over 10000 nM and 790 nM, respectively.

For the compound `CC(C)(C)C(=O)Nc1cnc2ccc(-c3cnc4ccccc4c3)cc2c1Nc1ccc(N2CCNCC2)c(C(F)(F)F)c1`, the half-maximal inhibitory concentration (IC50) in the data set “cells [1]” was determined as 1050 nM; in “cells [2]”, 640 nM; in the data set on MCF7 [4], 300 nM.

Consider `CC(=O)Nc1cnc2ccc(-c3cnc4ccccc4c3)cc2c1Nc1ccc(N2CCNCC2)c(C(F)(F)F)c1.Cl`, for which the Stability result (with Liver microsome; in [6]; in [8]) was “Stable” each time. The inhibition in data set [5] is 42.1%; in data set [7] it was 47.3%; in data set [9] it was 1%; in data set [10] it was 34.9%. Besides, the IC50 in “cells [1]” stood at 500 nM; in “cells [2]”, 360 nM; in [3] it was 22 nM; in the data set on MCF7 [4] it was 110 nM.

For the compound `CC(=O)Nc1cnc2ccc(-c3cnc4ccccc4c3)cc2c1Nc1ccc(C(C)(C)C#N)cc1`, the IC50 in “cells [1]” came out at 2560 nM; in the data set “cells [2]”, 3950 nM; with MCF7 [4], 440 nM.

Turning to `CC(=O)Nc1cnc2ccc(-c3cnc4ccccc4c3)cc2c1Nc1ccc(N2CCN(C(C)=O)CC2)c(C(F)(F)F)c1`, the result on mTORC1 (Homo sapiens) [11], in the data set with MCF7 [14], with MCF7 [16] and on mTORC1 (Homo sapiens) [18] was Active. Moreover, the IC50 in “cells [1]” was 170 nM; in “cells [2]” it was 110 nM; in data set [3], 30 nM; in [12], 1500 nM; in data set [13], 502 nM; in [15], over 5000 nM. Besides, the IC50 is 40 nM in the data set on MCF7 [4] and 2080 nM in data set [17].

As for `CC(C)(C)C(=O)Nc1cnc2ccc(-c3cnc4ccccc4c3)cc2c1Nc1ccc(C(C)(C)C#N)cc1`, the IC50 in “cells [1]” and in the data set “cells [2]” was over 10000 nM throughout.

Turning to `Cn1c(=O)n(-c2ccc(C(C)(C)C#N)cc2)c2c3cc(-c4cnc5ccccc5c4)ccc3ncc21` [DACTOLISIB], the IC50 in “cells [1]” was determined as 190 nM; in the data set “cells [2]” it was 140 nM.

With `CC(C)(C#N)c1ccc(Nc2c(NC(=O)C(F)(F)F)cnc3ccc(-c4cnc5ccccc5c4)cc23)cc1`, the IC50 is over 10000 nM in “cells [1]”, over 10000 nM in the data set “cells [2]” and 1360 nM in the data set with MCF7 [4]. The compound further came in with an inhibition in data set [19] of 92%.

With `CC(C)(C#N)c1ccc(Nc2c(NS(C)(=O)=O)cnc3ccc(-c4cnc5ccccc5c4)cc23)cc1`, the IC50 in “cells [1]” and in “cells [2]” was over 10000 nM each time.

Take `Nc1cnc2ccc(-c3cnc4ccccc4c3)cc2c1Nc1ccc(N2CCNCC2)c(C(F)(F)F)c1`: the IC50 in the data set “cells [1]” was determined as 3440 nM; in the data set “cells [2]”, 1610 nM; in the data set on MCF7 [4] it was 470 nM.

Regarding `O=C(Nc1cnc2ccc(-c3cnc4ccccc4c3)cc2c1Nc1ccc(N2CCNCC2)c(C(F)(F)F)c1)C(F)(F)F`, the IC50 amounted to 3820 nM in “cells [1]”, 1240 nM in “cells [2]” and 320 nM in the data set on MCF7 [4].

Turning to `CC(=O)Nc1cnc2ccc(-c3cnc4ccccc4c3)cc2c1Nc1ccc(N2CCN(S(C)(=O)=O)CC2)c(C(F)(F)F)c1`, the half-maximal inhibitory concentration (IC50) in the data set “cells [1]” came to 190 nM; in the data set “cells [2]”, 430 nM; in the data set on MCF7 [4] it was 60 nM.
